Reference: patent US5484940A, “Substituted 3-indolyl-5-pyrazolone compounds” (priority 1994, dated 1996)

Tests used:
293 751 SWE cells = assay: Cytotoxicity (MTT) in 293 751 SWE cells; type: cell-based, human; conditions: concentration not given
Description: (§1) This screening assay employed cells (K293=human kidney cell line) which were stably transfected with the gene for amyloid precursor protein 751 (APP751) containing the double mutation Lys651 Met652 to Asn651 Leu652 (APP751 numbering) in the manner described in International Patent Application Publication No. 94/10569^1 and Citron et al.^16. This mutation is commonly called the Swedish mutation and the cells, designated as "293 751 SWE", were plated in Coming 96-well plates at 1.5-2.5×10^4 cells per well in Dulbecco's minimal essential media plus 10% fetal bovine serum. Cell number is important in order to achieve β-amyloid ELISA results within the linear range of the assay (~0.2 to 2.5 ng per mL).
Cytotoxic effects of the compounds were measured by a modification of the method of Hansen, et al.^17. To the cells remaining in the tissue culture plate was added 25 μL of a 3,(4,5-dimethylthiazol-2-yl)2,5-diphenyltetrazolium bromide (MTT) stock solution (5 mg/mL) to a final concentration of 1 mg/mL. Cells were incubated at 37° C. for one hour, and cellular activity was stopped by the addition of an equal volume of MTT lysis buffer (20% w/v sodium dodecylsulfate in 50% dimethylformamide, pH 4.7). Complete extraction was achieved by overnight shaking at room temperature. The difference in the OD562nm and the OD650nm was measured in a Molecular Device's UVmax microplate reader as an indicator of the cellular viability.

[1] = tested on: β-amyloid peptide production; assay: Cellular screen for inhibitors of β-amyloid production (ELISA, 293 751 SWE cells); type: cell-based, human; conditions: 2 h pretreatment + 2 h, normalized for cytotoxicity (MTT), concentration not given
Description: as §1
Following overnight incubation at 37° C. in an incubator equilibrated with 10% carbon dioxide, media were removed and replaced with 200 μL of a substituted 3-indolyl-5-pyrazolone (drug) containing media per well for a two hour pretreatment period and cells were incubated as above.
At the end of the pretreatment period, the media were again removed and replaced with fresh drag containing media as above and cells were incubated for an additional two hours. After treatment, plates were centrifuged in a Beckman GPR at 1200 rpm for five minutes at room temperature to pellet cellular debris from the conditioned media. From each well, 100 μL of conditioned media or appropriate dilutions thereof were transferred into an ELISA plate precoated with antibody 266 against amino acids 13-28 of β-amyloid peptide as described in International Patent Application Publication No. 94/10569^1 and stored at 4° C. overnight. An ELISA assay employing labelled antibody 6C6 against amino acids 1-16 of β-amyloid peptide was run the next day to measure the amount of β-amyloid peptide produced.
The results of the β-amyloid peptide ELISA were fit to a standard curve and expressed as ng/mL β-amyloid peptide. […] All results are the mean and standard deviation of at least six replicate assays.

Row | SMILES | cytotoxic effect on the 293 751 SWE cells (293 751 SWE cells) | reduction of β-amyloid peptide production as compared to control [1]
1 | COc1ccc2c(c1)c(CC1=NN(C3CCCC3)C(=O)C1)c(C)n2C(=O)c1ccc(Cl)cc1 [Example 11, 3-[1-(4-chlorobenzoyl)-5-methoxy-2-methyl-3-indolylmethyl]-1-cyclopentyl-5-pyrazolone] | did not have a significant cytotoxic effect | at least 20%
2 | COc1ccc2c(c1)c(CC1=NN(C3CCCCCC3)C(=O)C1)c(C)n2C(=O)c1ccc(Cl)cc1 [Example 12, 3-[1-(4-chlorobenzoyl)-5-methoxy-2-methyl-3-indolylmethyl]-1-cycloheptyl-5-pyrazolone] | did not have a significant cytotoxic effect | at least 20%
3 | COc1ccc2c(c1)c(CC1=NN(Cc3ccccc3)C(=O)C1)c(C)n2C(=O)c1ccc(Cl)cc1 [Example 13, 3-[1-(4-chlorobenzoyl)-5-methoxy-2-methyl-3-indolylmethyl]-1-benzyl-5-pyrazolone] | did not have a significant cytotoxic effect | at least 20%
4 | CCCC(CCC)N1N=C(Cc2c(C)n(C(=O)c3ccc(Cl)cc3)c3ccc(OC)cc23)CC1=O [Example 16, 3-[1-(4-chlorobenzoyl)-5-methoxy-2-methyl-3-indolylmethyl]-1-(4-heptyl)-5-pyrazolone] | did not have a significant cytotoxic effect | at least 20%
5 | COc1ccc2[nH]c(C)c(CC3=NN(C4CCCCC4)C(=O)C3)c2c1 [Example 17, 3-(5-methoxy-2-methyl-3-indolylmethyl)-1-cyclohexyl-5-pyrazolone] | did not have a significant cytotoxic effect | at least 20%
6 | COc1ccc2c(c1)c(CC1=NN(C3CCCCC3)C(=O)C1)c(C)n2Cc1ccccc1 [Example 20, 3-(1-benzyl-5-methoxy-2-methyl-3-indolylmethyl)-1-cyclohexyl-5-pyrazolone] | did not have a significant cytotoxic effect | at least 20%
7 | COc1ccc2c(c1)c(CCC1=NN(C3CCCCC3)C(=O)C1)c(C)n2C(=O)c1ccc(Cl)cc1 [Example 21, 3-[1-(4-chlorobenzoyl)-5-methoxy-2-methyl-3-indolylethyl]-1-cyclohexyl-5-pyrazolone] | did not have a significant cytotoxic effect | at least 20%
8 | Cc1c(CC2=NN(C3CCCCC3)C(=O)C2)c2ccccc2n1C(=O)c1ccc(Cl)cc1 [Example 22, 3-[1-(4-chlorobenzoyl)-2-methyl-3-indolylmethyl]-1-cyclohexyl-5-pyrazolone] | did not have a significant cytotoxic effect | at least 20%
9 | COc1ccc2c(c1)c(CC1=NN(c3cccc(Br)c3)C(=O)C1)c(C)n2C(=O)c1ccc(Cl)cc1 [Example 28, 3-[1-(4-chlorobenzoyl)-5-methoxy-2-methyl-3-indolylmethyl]-1-(3-bromophenyl)-5-pyrazolone] | – | < 20%
10 | COc1ccc2c(c1)c(CC1=NN(c3cc(C)cc(C)c3)C(=O)C1)c(C)n2C(=O)c1ccc(Cl)cc1 [Example 29, 3-[1-(4-chlorobenzoyl)-5-methoxy-2-methyl-3-indolylmethyl]-1-(3,5-dimethylphenyl)-5-pyrazolone] | did not have a significant cytotoxic effect | at least 20%
11 | COc1ccc2c(c1)c(CC1=NN(c3ccc(C(F)(F)F)cc3)C(=O)C1)c(C)n2C(=O)c1ccc(Cl)cc1 [Example 37, 3-[1-(4-chlorobenzoyl)-5-methoxy-2-methyl-3-indolylmethyl]-1-(4-trifluoromethylphenyl)-5-pyrazolone] | did not have a significant cytotoxic effect | at least 20%
12 | COc1ccc2c(c1)c(CC1=NN(C3CCCCC3)C(=O)C1)c(C)n2C(=O)c1ccc(Cl)c(Cl)c1 [Example 39, 3-[1-(3,4-dichlorobenzoyl)-5-methoxy-2-methyl-3-indolylmethyl]-1-cyclohexyl-5-pyrazolone] | did not have a significant cytotoxic effect | at least 20%
13 | COc1ccc2c(c1)c(CC1=NN(c3cccc(NC(C)=O)c3)C(=O)C1)c(C)n2C(=O)c1ccc(Cl)cc1 [Example 41, 3-[1-(4-chlorobenzoyl)-5-methoxy-2-methyl-3-indolylmethyl]-1-(3-acetamidophenyl)-5-pyrazolone] | – | < 20%
14 | COc1ccc2c(c1)c(CC1=NN(C3CCCCC3)C(=O)C1C)c(C)n2C(=O)c1ccc(Cl)cc1 (centres unmarked) [Example 43, 3-[1-(4-chlorobenzoyl)-5-methoxy-2-methyl-3-indolylmethyl]-1-cyclohexyl-4-methyl-5-pyrazolone] | did not have a significant cytotoxic effect | at least 20%
15 | COc1ccc2c(c1)c(CC1=NN(C3CCCCC3)C(=O)C1(C)C)c(C)n2C(=O)c1ccc(Cl)cc1 [Example 44, 3-[1-(4-chlorobenzoyl)-5-methoxy-2-methyl-3-indolylmethyl]-1-cyclohexyl-4,4-dimethyl-5-pyrazolone] | did not have a significant cytotoxic effect | at least 20%
16 | COc1ccc2c(c1)c(CC1=NN(C)C(=O)C1)c(C)n2C(=O)c1ccc(Cl)cc1 [Example 46, 3-[1-(4-chlorobenzoyl)-5-methoxy-2-methyl-3-indolylmethyl]-1-methyl-5-pyrazolone] | did not have a significant cytotoxic effect | at least 20%
17 | O=C1CC(CCCc2c[nH]c3ccccc23)=NN1C1CCCCC1 [Example 49, 3-[3-indolyl-n-propyl]-1-cyclohexyl-5-pyrazolone] | did not have a significant cytotoxic effect | at least 20%
18 | COc1ccc2c(c1)c(CC1=NN(c3cccc(C(F)(F)F)c3)C(=O)C1)c(C)n2C(=O)c1ccc2ccccc2c1 [Example 51] | did not have a significant cytotoxic effect | at least 20%
19 | COc1ccc2c(c1)c(CC1=NN(c3cccc(C(F)(F)F)c3)C(=O)C1)c(C)n2C(=O)c1ccccc1 [Example 53, 3-[1-benzoyl-5-methoxy-2-methyl-3-indolylmethyl]-1-(3-trifluoromethylphenyl)-5-pyrazolone] | did not have a significant cytotoxic effect | at least 20%
20 | COc1ccc2c(c1)c(CC1=NN(c3ccc(C(F)(F)F)cc3)C(=O)C1)c(C)n2C(=O)c1ccc(C#N)cc1 [Example 55, 3-[1-(4-cyanobenzoyl)-5-methoxy-2-methyl-3-indolylmethyl]-1-(4-trifluoromethylphenyl)-5-pyrazolone] | did not have a significant cytotoxic effect | at least 20%
21 | COc1ccc(C(=O)n2c(C)c(CC3=NN(C4CCCCC4)C(=O)C3)c3cc(OC)ccc32)cc1 [Example 57, 3-[1-(4-methoxybenzoyl)-5-methoxy-2-methyl-3-indolylmethyl]-1-cyclohexyl-5-pyrazolone] | did not have a significant cytotoxic effect | at least 20%
22 | COc1ccc(C(=O)n2c(C)c(CC3=NN(c4cccc(C(F)(F)F)c4)C(=O)C3)c3cc(OC)ccc32)cc1 [Example 58, 3-[1-(4-methoxybenzoyl)-5-methoxy-2-methyl-3-indolylmethyl]-1-(3-trifluoromethylphenyl)-5-pyrazolone] | did not have a significant cytotoxic effect | at least 20%
23 | CCCC(=O)n1c(C)c(CC2=NN(C3CCCCC3)C(=O)C2)c2cc(OC)ccc21 [Example 60, 3-[1-butanoyl-5-methoxy-2-methyl-3-indolylmethyl]-1-cyclohexyl-5-pyrazolon] | did not have a significant cytotoxic effect | at least 20%
